Common to all, as to assay type: functional
In test [1] the test system is Candida albicans. Kind of test: Antifungal activity against Candida albicans MTCC 227 at 300 ug/ml by cup-plate method. As to conditions: for zone of inhibition at 300 µg/mL: read-out: DIZ.
Test [2] concerns Candida albicans. Kind of test: Antifungal activity against Candida albicans MTCC 227 at 200 ug/ml by cup-plate method. The conditions noted are these: for zone of inhibition at 200 µg/mL: read-out: DIZ.
Test [3] concerns Escherichia coli. Kind of test: Antibacterial activity against Escherichia coli MTCC 739 at 300 ug/ml by cup-plate method. The conditions noted are these: read-out: DIZ.
The test system of test [4] is Candida albicans. Kind of test: Antifungal activity against Candida albicans MTCC 227 at 100 ug/ml by cup-plate method. The conditions noted are these: for zone of inhibition at 100 µg/mL: read-out: DIZ.
Test [5] relates to Escherichia coli. Description: Antibacterial activity against Escherichia coli MTCC 739 at 200 ug/ml by cup-plate method. As to conditions: read-out: DIZ.
Test [6] has as its system Escherichia coli. Description: Antibacterial activity against Escherichia coli MTCC 739 at 100 ug/ml by cup-plate method. As to conditions: read-out: DIZ.
Test [7] relates to Pseudomonas aeruginosa. Description: Antibacterial activity against Pseudomonas aeruginosa MTCC 2453 at 300 ug/ml by cup-plate method. The conditions noted are these: read-out: DIZ.
The subject of test [8] is Pseudomonas aeruginosa. Description: Antibacterial activity against Pseudomonas aeruginosa MTCC 2453 at 200 ug/ml by cup-plate method. As to conditions: read-out: DIZ.
Test [9] relates to Pseudomonas aeruginosa. Description: Antibacterial activity against Pseudomonas aeruginosa MTCC 2453 at 100 ug/ml by cup-plate method. The conditions noted are these: read-out: DIZ.
For test [10], the system named is Bacillus subtilis. Kind of test: Antibacterial activity against Bacillus subtilis MTCC 121 at 300 ug/ml by cup plate method. As to conditions: read-out: DIZ.
The test system of test [11] is Bacillus subtilis. Description: Antibacterial activity against Bacillus subtilis MTCC 121 at 200 ug/ml by cup plate method. The conditions noted are these: read-out: DIZ.
Test [12] has as its system Bacillus subtilis. Description: Antibacterial activity against Bacillus subtilis MTCC 121 at 100 ug/ml by cup plate method. The conditions noted are these: read-out: DIZ.
Test [13] concerns Staphylococcus aureus. Description: Antibacterial activity against Staphylococcus aureus MTCC 96 at 300 ug/ml by cup-plate method. The conditions noted are these: read-out: DIZ.
Test [14] deals with Staphylococcus aureus. Description: Antibacterial activity against Staphylococcus aureus MTCC 96 at 200 ug/ml by cup-plate method. The conditions noted are these: read-out: DIZ.
Test [15] deals with Staphylococcus aureus. Description: Antibacterial activity against Staphylococcus aureus MTCC 96 at 100 ug/ml by cup-plate method. As to conditions: read-out: DIZ.
For test [16], the system named is Candida albicans. Description: Antifungal activity against Candida albicans MTCC 227 at 50 ug/ml by cup-plate method. As to conditions: for zone of inhibition at 50 µg/mL: read-out: DIZ.
The subject of test [17] is Pseudomonas aeruginosa. Description: Antibacterial activity against Pseudomonas aeruginosa MTCC 2453 at 50 ug/ml by cup-plate method. The conditions noted are these: read-out: DIZ.
Test [18] has as its system Escherichia coli. Description: Antibacterial activity against Escherichia coli MTCC 739 at 50 ug/ml by cup-plate method. The conditions noted are these: read-out: DIZ.
The test system of test [19] is Bacillus subtilis. Kind of test: Antibacterial activity against Bacillus subtilis MTCC 121 at 50 ug/ml by cup plate method. The conditions noted are these: read-out: DIZ.
In test [20] the test system is Staphylococcus aureus. Kind of test: Antibacterial activity against Staphylococcus aureus MTCC 96 at 50 ug/ml by cup-plate method. As to conditions: read-out: DIZ.

The source made the active and inactive calls. No cut-off for these calls is given here.

Consider `O=C1N/C(=N\c2ccccc2[N+](=O)[O-])S/C1=C\c1ccccc1[N+](=O)[O-]`, for which the zone of inhibition at 300 µg/mL is 26 mm in the test on Candida albicans [1]; 11 mm in the test with Escherichia coli [3]; 13 mm with Pseudomonas aeruginosa [7]; 10 mm in the test with Bacillus subtilis [10]; 14 mm in the test with Staphylococcus aureus [13]. In addition, the zone of inhibition at 200 µg/mL is 23 mm with Candida albicans [2]; 10 mm with Escherichia coli [5]; 13 mm in the test with Pseudomonas aeruginosa [8]; 10 mm in the test on Bacillus subtilis [11]; 13 mm with Staphylococcus aureus [14]. In addition, the zone of inhibition at 100 µg/mL in the test with Candida albicans [4] came to 16 mm; in the test with Escherichia coli [6], 8 mm; in the test with Pseudomonas aeruginosa [9], 10 mm; in the test with Bacillus subtilis [12], 9 mm; in the test on Staphylococcus aureus [15], 10 mm. Also, the zone of inhibition at 50 µg/mL worked out at 10 mm in the test on Candida albicans [16]; 10 mm in the test with Pseudomonas aeruginosa [17]; 8 mm with Escherichia coli [18]; 9 mm in the test with Bacillus subtilis [19]; 10 mm in the test on Staphylococcus aureus [20].
For `OC(Cn1cncn1)(Cn1cncn1)c1ccc(F)cc1F` [FLUCONAZOLE], the zone of inhibition at 100 µg/mL in the test with Candida albicans [4] is 35 mm.
On to `O=C1N/C(=N\c2ccccc2[N+](=O)[O-])S/C1=C\c1ccccc1Cl`, for which the zone of inhibition at 300 µg/mL in the test with Candida albicans [1] worked out at 19 mm; in the test on Escherichia coli [3] it was 12 mm; with Pseudomonas aeruginosa [7] it was 15 mm; with Bacillus subtilis [10], 18 mm; with Staphylococcus aureus [13], 15 mm. The zone of inhibition at 200 µg/mL in the test on Candida albicans [2] was determined as 18 mm; with Escherichia coli [5] it was 10 mm; with Pseudomonas aeruginosa [8] it was 12 mm; in the test with Bacillus subtilis [11] it was 15 mm; in the test with Staphylococcus aureus [14] it was 14 mm. For the same molecule, the zone of inhibition at 100 µg/mL in the test on Candida albicans [4] was found to be 16 mm; with Escherichia coli [6] it was 10 mm; in the test on Pseudomonas aeruginosa [9], 10 mm; in the test with Bacillus subtilis [12] it was 13 mm; in the test on Staphylococcus aureus [15], 12 mm. Also, the zone of inhibition at 50 µg/mL with Candida albicans [16] came to 10 mm; in the test on Pseudomonas aeruginosa [17], 8 mm; in the test with Escherichia coli [18], 9 mm; in the test on Bacillus subtilis [19], 11 mm; in the test on Staphylococcus aureus [20], 11 mm.
`O=C1N/C(=N\c2ccc([N+](=O)[O-])cc2)S/C1=C\c1cccc([N+](=O)[O-])c1`: the “diameter of the inhibition zone (DIZ)” value in the test on Candida albicans [1], with Candida albicans [2], with Candida albicans [4] and in the test with Candida albicans [16] was “inactive” in each case. Also, the zone of inhibition at 300 µg/mL with Escherichia coli [3] came to 12 mm; in the test with Pseudomonas aeruginosa [7], 12 mm; in the test on Bacillus subtilis [10] it was 15 mm; in the test with Staphylococcus aureus [13] it was 17 mm. The zone of inhibition at 200 µg/mL in the test on Escherichia coli [5] is 12 mm; with Pseudomonas aeruginosa [8], 12 mm; in the test with Bacillus subtilis [11], 13 mm; in the test on Staphylococcus aureus [14], 16 mm. In addition, the zone of inhibition at 100 µg/mL stood at 11 mm in the test on Escherichia coli [6], 11 mm in the test with Pseudomonas aeruginosa [9], 12 mm in the test with Bacillus subtilis [12] and 15 mm in the test on Staphylococcus aureus [15]. Besides, the zone of inhibition at 50 µg/mL was 10 mm with Pseudomonas aeruginosa [17], 11 mm in the test on Escherichia coli [18], 11 mm in the test with Bacillus subtilis [19] and 11 mm in the test with Staphylococcus aureus [20].
With `O=C1N/C(=N\c2ccccc2[N+](=O)[O-])S/C1=C\c1ccccc1`, the zone of inhibition at 300 µg/mL with Candida albicans [1] came out at 18 mm; in the test with Escherichia coli [3], 12 mm; in the test on Pseudomonas aeruginosa [7] it was 10 mm; in the test with Bacillus subtilis [10] it was 13 mm; with Staphylococcus aureus [13], 15 mm. Besides, the zone of inhibition at 200 µg/mL in the test with Candida albicans [2] worked out at 13 mm; in the test on Escherichia coli [5], 10 mm; in the test on Pseudomonas aeruginosa [8], 8 mm; in the test with Bacillus subtilis [11], 11 mm; with Staphylococcus aureus [14], 12 mm. In addition, the zone of inhibition at 100 µg/mL with Candida albicans [4] was found to be 11 mm; in the test with Escherichia coli [6], 8 mm; with Pseudomonas aeruginosa [9], 6 mm; with Bacillus subtilis [12], 10 mm; with Staphylococcus aureus [15] it was 11 mm. Also, the zone of inhibition at 50 µg/mL in the test with Candida albicans [16] came out at 10 mm; in the test on Pseudomonas aeruginosa [17], 6 mm; with Escherichia coli [18], 7 mm; with Bacillus subtilis [19], 8 mm; in the test with Staphylococcus aureus [20], 10 mm.
On to `COc1cc(/C=C2\S/C(=N/c3ccc([N+](=O)[O-])cc3)NC2=O)ccc1O`, for which the “diameter of the inhibition zone (DIZ)” value in the test on Candida albicans [1], with Candida albicans [2], in the test with Candida albicans [4] and with Candida albicans [16] was “inactive” in each case. In addition, the zone of inhibition at 300 µg/mL in the test on Escherichia coli [3] amounted to 13 mm; with Pseudomonas aeruginosa [7], 17 mm; in the test on Bacillus subtilis [10], 15 mm; in the test with Staphylococcus aureus [13] it was 17 mm. Moreover, the zone of inhibition at 200 µg/mL is 12 mm in the test with Escherichia coli [5], 15 mm in the test on Pseudomonas aeruginosa [8], 14 mm in the test with Bacillus subtilis [11] and 16 mm in the test with Staphylococcus aureus [14]. For the same molecule, the zone of inhibition at 100 µg/mL with Escherichia coli [6] worked out at 12 mm; with Pseudomonas aeruginosa [9] it was 15 mm; in the test on Bacillus subtilis [12], 12 mm; in the test on Staphylococcus aureus [15] it was 15 mm. Moreover, the zone of inhibition at 50 µg/mL in the test on Pseudomonas aeruginosa [17] turned out to be 14 mm; with Escherichia coli [18] it was 11 mm; in the test on Bacillus subtilis [19] it was 11 mm; in the test with Staphylococcus aureus [20], 14 mm.
Regarding `O=C1N/C(=N\c2ccc([N+](=O)[O-])cc2)S/C1=C\c1ccccc1Cl`, the “diameter of the inhibition zone (DIZ)” value in the test with Candida albicans [1], in the test with Candida albicans [2], in the test with Candida albicans [4] and in the test on Candida albicans [16] was “inactive” each time. Moreover, the zone of inhibition at 300 µg/mL in the test on Escherichia coli [3] came to 16 mm; in the test on Pseudomonas aeruginosa [7], 17 mm; in the test on Bacillus subtilis [10], 17 mm; in the test with Staphylococcus aureus [13], 19 mm. The zone of inhibition at 200 µg/mL in the test with Escherichia coli [5] amounted to 15 mm; in the test with Pseudomonas aeruginosa [8], 16 mm; in the test on Bacillus subtilis [11], 15 mm; in the test on Staphylococcus aureus [14] it was 17 mm. Besides, the zone of inhibition at 100 µg/mL in the test with Escherichia coli [6] worked out at 14 mm; in the test on Pseudomonas aeruginosa [9], 14 mm; in the test with Bacillus subtilis [12], 14 mm; with Staphylococcus aureus [15], 16 mm. Further, the zone of inhibition at 50 µg/mL in the test with Pseudomonas aeruginosa [17] came out at 13 mm; in the test on Escherichia coli [18], 13 mm; in the test on Bacillus subtilis [19], 13 mm; in the test with Staphylococcus aureus [20], 15 mm.
In the case of `O=C1N/C(=N\c2ccc([N+](=O)[O-])cc2)S/C1=C\c1ccc(O)cc1`, the “diameter of the inhibition zone (DIZ)” value with Candida albicans [1], in the test on Candida albicans [2], with Candida albicans [4] and in the test with Candida albicans [16] was “inactive” in each case. Moreover, the zone of inhibition at 300 µg/mL with Escherichia coli [3] was found to be 15 mm; in the test with Pseudomonas aeruginosa [7], 12 mm; with Bacillus subtilis [10], 15 mm; in the test with Staphylococcus aureus [13] it was 15 mm. In addition, the zone of inhibition at 200 µg/mL in the test with Escherichia coli [5] stood at 13 mm; in the test on Pseudomonas aeruginosa [8], 11 mm; in the test with Bacillus subtilis [11], 14 mm; in the test on Staphylococcus aureus [14], 13 mm. In addition, the zone of inhibition at 100 µg/mL in the test with Escherichia coli [6] was 12 mm; in the test on Pseudomonas aeruginosa [9] it was 11 mm; with Bacillus subtilis [12] it was 12 mm; in the test on Staphylococcus aureus [15] it was 12 mm. In addition, the zone of inhibition at 50 µg/mL was found to be 10 mm in the test on Pseudomonas aeruginosa [17], 11 mm in the test on Escherichia coli [18], 11 mm with Bacillus subtilis [19] and 11 mm with Staphylococcus aureus [20].
Take `O=C(O)c1cn(C2CC2)c2cc(N3CCNCC3)c(F)cc2c1=O` [CIPROFLOXACIN]: the “diameter of the inhibition zone (DIZ)” value with Candida albicans [4] was “inactive”. Moreover, the zone of inhibition at 100 µg/mL with Escherichia coli [6] turned out to be 28 mm; with Pseudomonas aeruginosa [9], 18 mm; with Bacillus subtilis [12], 22 mm; with Staphylococcus aureus [15], 19 mm.

Values taken from ChEMBL document CHEMBL3044740, “Syntheses and evaluation of 2,5-disubstituted 4-thiazolidinone analogues as antimicrobial agents” (2012).
